# Reference: US7851474B2, “Dipiperazinyl ketones and related analogues” (Neurogen Corporation, priority 2005, dated 2010)
# Target: T1, chimeric human H3 receptor (Homo sapiens, UniProt Q9Y5N1, E19D)
# T1 construct: made in house; host or cells: Sf9 insect cells (baculovirus infection); P2 membrane preparation
# Assay: Chimeric human H3 receptor screening GTP binding assay (inhibition of histamine-stimulated GTP-gamma35S binding, Example 8)
# Type: biochemical
# Conditions: 1 h; Table II "Ki", symbol "+": assay described in Example 8; read-out: percent inhibition of agonist-induced GTP-gammaS binding to H3
# Procedure, shortened: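 Data are percent inhibition of the 1 μM histamine-stimulated GTP-gamma35S (125 pM) binding, after non-specific binding (10 uM GTP-gammaS) is subtracted. Test compound at 4 μM. Incubation was 60 min at room temperature with Sf9 membranes bearing receptor plus G-protein subunits, buffer pH 7.4 with 10 μM GDP, and filtration read-out.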
# T1 sequence (Q9Y5N1 with tags, fused parts or gaps E19D): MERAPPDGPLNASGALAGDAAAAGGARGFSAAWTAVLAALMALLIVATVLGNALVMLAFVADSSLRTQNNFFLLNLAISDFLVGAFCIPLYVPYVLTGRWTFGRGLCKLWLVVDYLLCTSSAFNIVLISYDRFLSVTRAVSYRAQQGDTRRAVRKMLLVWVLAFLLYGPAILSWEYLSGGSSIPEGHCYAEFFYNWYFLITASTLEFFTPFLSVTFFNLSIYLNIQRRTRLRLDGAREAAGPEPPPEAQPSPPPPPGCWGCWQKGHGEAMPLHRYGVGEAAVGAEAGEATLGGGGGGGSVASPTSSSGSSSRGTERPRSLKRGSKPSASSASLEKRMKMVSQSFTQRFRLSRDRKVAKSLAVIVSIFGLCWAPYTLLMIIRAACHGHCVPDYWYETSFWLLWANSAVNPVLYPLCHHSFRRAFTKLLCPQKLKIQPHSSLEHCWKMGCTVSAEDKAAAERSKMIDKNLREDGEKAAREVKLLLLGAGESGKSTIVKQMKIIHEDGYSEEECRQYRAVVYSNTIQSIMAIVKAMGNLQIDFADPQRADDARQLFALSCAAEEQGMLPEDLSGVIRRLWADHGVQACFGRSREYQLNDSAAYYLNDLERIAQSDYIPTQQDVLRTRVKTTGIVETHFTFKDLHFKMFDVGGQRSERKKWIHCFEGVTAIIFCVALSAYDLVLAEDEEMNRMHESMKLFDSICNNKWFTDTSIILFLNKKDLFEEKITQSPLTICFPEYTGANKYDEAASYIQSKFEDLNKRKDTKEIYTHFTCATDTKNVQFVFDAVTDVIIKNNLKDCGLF
row,Compound,inhibition at 4 µM
1,"CC(C)Oc1ccc(C(=O)N2CCN(CC(=O)N3CCN(C4CCC4)CC3)CC2)cc1 [Compound 776, 1-cyclobutyl-4-{[4-(4-isopropoxybenzoyl)piperazin-1-yl]acetyl}piperazine]",> 90%
2,"CC(C)c1ccc(C(=O)N2CCN(CC(=O)N3CCN(C4CCC4)CC3)CC2)cc1 [Compound 777, 1-cyclobutyl-4-{[4-(4-isopropylbenzoyl)piperazin-1-yl]acetyl}piperazine]",> 90%
3,"Cc1ccc(C(=O)N2CCN(CC(=O)N3CCN(C4CCC4)CC3)CC2)cc1 [Compound 783, 1-cyclobutyl-4-{[4-(4-methylbenzoyl)piperazin-1-yl]acetyl}piperazine]",> 90%
4,"CCCOc1ccc(C(=O)N2CCN(CC(=O)N3CCN(C4CCC4)CC3)CC2)cc1 [Compound 788, 1-cyclobutyl-4-{[4-(4-propoxybenzoyl)piperazin-1-yl]acetyl}piperazine]",> 90%
5,"CCCc1ccc(C(=O)N2CCN(CC(=O)N3CCN(C4CCC4)CC3)CC2)cc1 [Compound 790, 1-cyclobutyl-4-{[4-(4-propylbenzoyl)piperazin-1-yl]acetyl}piperazine]",> 90%
6,"O=C(CN1CCN(C(=O)C(c2ccccc2)c2ccccc2)CC1)N1CCN(C2CCC2)CC1 [Compound 794, 1-cyclobutyl-4-{[4-(diphenylacetyl)piperazin-1-yl]acetyl}piperazine]",> 90%

# Same assay, conditions: 1 h; Table II, "+" in the column headed Ki; assay of Example 8; read-out: percent inhibition of agonist-induced GTP-gammaS binding to H3
row,Compound,inhibition at 4 µM
1,"COc1cccc(OC)c1C(=O)N1CCN(CC(=O)N2CCN(C3CCC3)CC2)CC1 [Compound 694, 1-cyclobutyl-4-{[4-(2,6-dimethoxybenzoyl)piperazin-1-yl]acetyl}piperazine]",> 90%
2,"Cc1cccc(C)c1C(=O)N1CCN(CC(=O)N2CCN(C3CCC3)CC2)CC1 [Compound 696, 1-cyclobutyl-4-{[4-(2,6-dimethylbenzoyl)piperazin-1-yl]acetyl}piperazine]",> 90%
3,"CCOc1ccccc1C(=O)N1CCN(CC(=O)N2CCN(C3CCC3)CC2)CC1 [Compound 699, 1-cyclobutyl-4-{[4-(2-ethoxybenzoyl)piperazin-1-yl]acetyl}piperazine]",> 90%
4,"CCC(CC)(C(=O)N1CCN(CC(=O)N2CCN(C3CCC3)CC2)CC1)c1ccccc1 [Compound 702, 1-cyclobutyl-4-{[4-(2-ethyl-2-phenylbutanoyl)piperazin-1-yl]acetyl}piperazine]",> 90%
5,"Cc1cccc(C(=O)N2CCN(CC(=O)N3CCN(C4CCC4)CC3)CC2)c1F [Compound 703, 1-cyclobutyl-4-{[4-(2-fluoro-3-methylbenzoyl)piperazin-1-yl]acetyl}piperazine]",> 90%
6,"O=C(CN1CCN(C(=O)c2ccccc2F)CC1)N1CCN(C2CCC2)CC1 [Compound 706, 1-cyclobutyl-4-{[4-(2-fluorobenzoyl)piperazin-1-yl]acetyl}piperazine]",> 90%
7,"COc1ccccc1C(=O)N1CCN(CC(=O)N2CCN(C3CCC3)CC2)CC1 [Compound 711, 1-cyclobutyl-4-{[4-(2-methoxybenzoyl)piperazin-1-yl]acetyl}piperazine]",> 90%
8,"Cc1oc(-c2ccccc2)cc1C(=O)N1CCN(CC(=O)N2CCN(C3CCC3)CC2)CC1 [Compound 713, 1-cyclobutyl-4-{[4-(2-methyl-5-phenyl-3-furoyl)piperazin-1-yl]acetyl}piperazine]",> 90%
9,"Cc1ccccc1C(=O)N1CCN(CC(=O)N2CCN(C3CCC3)CC2)CC1 [Compound 714, 1-cyclobutyl-4-{[4-(2-methylbenzoyl)piperazin-1-yl]acetyl}piperazine]",> 90%
10,"O=C(CN1CCN(C(=O)c2ccc3ccccc3c2)CC1)N1CCN(C2CCC2)CC1 [Compound 716, 1-cyclobutyl-4-{[4-(2-naphthoyl)piperazin-1-yl]acetyl}piperazine]",> 90%
11,"O=C(Cc1ccc2ccccc2c1)N1CCN(CC(=O)N2CCN(C3CCC3)CC2)CC1 [Compound 717, 1-cyclobutyl-4-{[4-(2-naphthylacetyl)piperazin-1-yl]acetyl}piperazine]",> 90%
12,"O=C(CN1CCN(C(=O)c2ccccc2Oc2ccccc2)CC1)N1CCN(C2CCC2)CC1 [Compound 718, 1-cyclobutyl-4-{[4-(2-phenoxybenzoyl)piperazin-1-yl]acetyl}piperazine]",> 90%
13,"CCC(C(=O)N1CCN(CC(=O)N2CCN(C3CCC3)CC2)CC1)c1ccccc1 (stereo not shown) [Compound 721, 1-cyclobutyl-4-{[4-(2-phenylbutanoyl)piperazin-1-yl]acetyl}piperazine]",> 90%
14,"CCCOc1ccccc1C(=O)N1CCN(CC(=O)N2CCN(C3CCC3)CC2)CC1 [Compound 722, 1-cyclobutyl-4-{[4-(2-propoxybenzoyl)piperazin-1-yl]acetyl}piperazine]",> 90%
15,"O=C(CN1CCN(C(=O)c2cccs2)CC1)N1CCN(C2CCC2)CC1 [Compound 723, 1-cyclobutyl-4-{[4-(2-thienylcarbonyl)piperazin-1-yl]acetyl}piperazine]",> 90%
16,"COc1cc(C(=O)N2CCN(CC(=O)N3CCN(C4CCC4)CC3)CC2)cc(OC)c1OC [Compound 724, 1-cyclobutyl-4-{[4-(3,4,5-trimethoxybenzoyl)piperazin-1-yl]acetyl}piperazine]",> 90%
17,"O=C(CN1CCN(C(=O)c2ccc(Cl)c(Cl)c2)CC1)N1CCN(C2CCC2)CC1 [Compound 726, 1-cyclobutyl-4-{[4-(3,4-dichlorobenzoyl)piperazin-1-yl]acetyl}piperazine]",> 90%

row,Compound,inhibition at 4 µM
1,"CCOc1ccc(C(=O)N2CCN(CC(=O)N3CCN(C4CCC4)CC3)CC2)cc1OCC [Compound 728, 1-cyclobutyl-4-{[4-(3,4-diethoxybenzoyl)piperazin-1-yl]acetyl}piperazine]",> 90%
2,"O=C(CN1CCN(C(=O)c2ccc(F)c(F)c2)CC1)N1CCN(C2CCC2)CC1 [Compound 729, 1-cyclobutyl-4-{[4-(3,4-difluorobenzoyl)piperazin-1-yl]acetyl}piperazine]",> 90%
3,"COc1ccc(C(=O)N2CCN(CC(=O)N3CCN(C4CCC4)CC3)CC2)cc1OC [Compound 731, 1-cyclobutyl-4-{[4-(3,4-dimethoxybenzoyl)piperazin-1-yl]acetyl}piperazine]",> 90%
4,"Cc1ccc(C(=O)N2CCN(CC(=O)N3CCN(C4CCC4)CC3)CC2)cc1C [Compound 734, 1-cyclobutyl-4-{[4-(3,4-dimethylbenzoyl)piperazin-1-yl]acetyl}piperazine]",> 90%
5,"COc1c(Cl)cc(Cl)c(OC)c1C(=O)N1CCN(CC(=O)N2CCN(C3CCC3)CC2)CC1 [Compound 737, 1-cyclobutyl-4-{[4-(3,5-dichloro-2,6-dimethoxybenzoyl)piperazin-1-yl]acetyl}piperazine]",> 90%
6,"O=C(CN1CCN(C(=O)c2cc(Cl)cc(Cl)c2)CC1)N1CCN(C2CCC2)CC1 [Compound 738, 1-cyclobutyl-4-{[4-(3,5-dichlorobenzoyl)piperazin-1-yl]acetyl}piperazine]",> 90%
7,"COc1cc(OC)cc(C(=O)N2CCN(CC(=O)N3CCN(C4CCC4)CC3)CC2)c1 [Compound 741, 1-cyclobutyl-4-{[4-(3,5-dimethoxybenzoyl)piperazin-1-yl]acetyl}piperazine]",> 90%
8,"Cc1cc(C)cc(C(=O)N2CCN(CC(=O)N3CCN(C4CCC4)CC3)CC2)c1 [Compound 742, 1-cyclobutyl-4-{[4-(3,5-dimethylbenzoyl)piperazin-1-yl]acetyl}piperazine]",> 90%
9,"COc1ccc(C(=O)N2CCN(CC(=O)N3CCN(C4CCC4)CC3)CC2)cc1F [Compound 748, 1-cyclobutyl-4-{[4-(3-fluoro-4-methoxybenzoyl)piperazin-1-yl]acetyl}piperazine]",> 90%
10,"O=C(CN1CCN(C(=O)c2cccc(F)c2)CC1)N1CCN(C2CCC2)CC1 [Compound 752, 1-cyclobutyl-4-{[4-(3-fluorobenzoyl)piperazin-1-yl]acetyl}piperazine]",> 90%
11,"COc1cccc(C(=O)N2CCN(CC(=O)N3CCN(C4CCC4)CC3)CC2)c1 [Compound 757, 1-cyclobutyl-4-{[4-(3-methoxybenzoyl)piperazin-1-yl]acetyl}piperazine]",> 90%
12,"CC(C)C(C(=O)N1CCN(CC(=O)N2CCN(C3CCC3)CC2)CC1)c1ccccc1 (stereo not shown) [Compound 760, 1-cyclobutyl-4-{[4-(3-methyl-2-phenylbutanoyl)piperazin-1-yl]acetyl}piperazine]",> 90%
13,"Cc1cccc(C(=O)N2CCN(CC(=O)N3CCN(C4CCC4)CC3)CC2)c1 [Compound 761, 1-cyclobutyl-4-{[4-(3-methylbenzoyl)piperazin-1-yl]acetyl}piperazine]",> 90%
14,"O=C(CN1CCN(C(=O)c2cccc(Oc3ccccc3)c2)CC1)N1CCN(C2CCC2)CC1 [Compound 764, 1-cyclobutyl-4-{[4-(3-phenoxybenzoyl)piperazin-1-yl]acetyl}piperazine]",> 90%
15,"O=C(CN1CCN(C(=O)c2ccsc2)CC1)N1CCN(C2CCC2)CC1 [Compound 765, 1-cyclobutyl-4-{[4-(3-thienylcarbonyl)piperazin-1-yl]acetyl}piperazine]",> 90%
16,"Cc1cc(C(=O)N2CCN(CC(=O)N3CCN(C4CCC4)CC3)CC2)oc1C [Compound 766, 1-cyclobutyl-4-{[4-(4,5-dimethyl-2-furoyl)piperazin-1-yl]acetyl}piperazine]",> 90%
17,"O=C(CN1CCN(C(=O)c2ccc(F)cc2)CC1)N1CCN(C2CCC2)CC1 [Compound 772, 1-cyclobutyl-4-{[4-(4-fluorobenzoyl)piperazin-1-yl]acetyl}piperazine]",> 90%
